Type in all cases: cell-based, human
One experiment deals with N1^+/− iPSC-derived ECs. Description: Network-based small molecule screen by targeted RNA-seq of 119 genes (KNN and hierarchical clustering). The following applies: for KNN classification of network gene expression of treated N1^+/− ECs: initial screen of 1595 small molecules, treatment day 15 to day 21 of differentiation, KNN k=2; for hierarchical clustering of transcriptional profile of treated N1-haploinsufficient ECs with WT ECs: initial screen, complete agglomeration method. The text has this:
TALEN-engineered isogenic human iPSCs that were either WT (wild-type) or N1^+/− were derived and characterized as detailed in Theodoris et al., Cell. 2015; 160:1072-1086. Isogenic iPSCs (induced pluripotent stem cells) were differentiated into ECs as previously described (Theodoris et al., 2015; White et al., Stem Cells. 2012; 31:92-103). On day 13 of the differentiation process, ECs were greater than 90% double-positive for CD31 (BD #558068) and CD144 (#FAB9381P) by FACS (fluorescence-activated cell sorting) analysis (FIGS. 9G-H). Small molecule experiments (described below) were conducted at day 15 of differentiation.
(§1) Starting on day 15 of differentiation, WT ECs were exposed to 10 μM DMSO (dimethyl sulfoxide) (n=80) while isogenic N1^+/− ECs were exposed to either 10 μM DMSO (n=80) or one of the small molecules from the LOPAC (1280 molecules) (Sigma LO1280) or Sheng Ding (315 molecules) chemical libraries. DMSO or small molecules were renewed with EC media (ScienCell #1001) changes on alternating days until the cells were ultimately collected for analysis on day 21. ECs were imaged using the IN Cell Analyzer on day 21 to evaluate morphology and cell death; wells with extensive cell death were eliminated from final analyses. For validation experiments, promising small molecules identified from the initial screen were applied to N1^+/− ECs in duplicate or triplicate along with controls of DMSO-exposed WT and N1^+/− ECs (n=4 each) using the same process as the initial screen described above.
(§2) ECs were lysed and RNA was isolated using the Qiagen RNeasy 96-well purification kit. RNA was diluted so that it was between the 10 pg-1 ng range accepted by the Cellular Research Precise targeted RNA-seq (RNA sequencing) system. Targeted RNA-seq libraries were prepared as per the Cellular Research Precise protocol (Rev 03092015), which includes both molecule and sample barcoding. The selected 119 target genes (see Table 1) included 3 low-expressing housekeeping genes for normalization (CHMP2A, C1orf43, REEP5) and either predicted central regulatory nodes or peripheral genes positioned within varied regions of the N1 network to permit identification of small molecules that affected central nodes as well as those that may have a synergistic effect in combination due to regulating different aspects of the network. Briefly, RNA was added to the Precise Encoding Plate containing indexed dT primer, dNTPs, and Spike-in mRNA controls and incubated at 65° C. for 3 minutes followed by cooling on ice. A master-mix of RT enzyme, RNase inhibitor, and buffer was then added to the samples, and they were incubated at 42° C. for 30 minutes followed by 80° C. for 5 minutes. Each plate of samples was combined into a single 2 ml tube and purified with AMPureXP beads. N1 PCR master-mix was added and samples were incubated for 94° C. for 2 minutes, followed by 15 cycles of 94° C. for 30 seconds, 55° C. for 3 minutes, and 68° C. for 1 minute, followed by 68° C. for 7 minutes. Samples were purified with AMPureXP beads and N2 PCR master-mix was added. Samples were incubated with the same thermal cycler program as above for 12 cycles. These final libraries were then purified with AMPureXP beads and analyzed for quality and concentration by Agilent Bioanalyzer and Illumina Library Quantification Kit (KAPA Biosystems), respectively. Libraries were normalized to equivalent concentration and pooled for paired-end 100 bp sequencing on an Illumina HiSeq 2500 instrument.
Sequencing data was analyzed using Cellular Research Precise Analysis Pipeline on the SevenBridges platform, which included analyzing sequencing quality with FASTQC, trimming adapters and filtering reads, demultiplexing based on sample barcodes, aligning reads with Bowtie 2, and determining the number of unique molecular indices per gene. Network inference was based on mutual information of gene expression from all DMSO- and small molecule-exposed samples as described in Margolin et al., BMC Bioinformatics. […]

Experiment [1] has as its system N1^+/− ECs. In words: Validation trials of screen candidates by targeted RNA-seq with the trained KNN algorithm. The following applies: duplicate or triplicate; one or more replicates classified as WT. As for the experimental part: as §1, §2
Sequencing data was analyzed using Cellular Research Precise Analysis Pipeline on the SevenBridges platform, which included analyzing sequencing quality with FASTQC, trimming adapters and filtering reads, demultiplexing based on sample barcodes, aligning reads with Bowtie 2, and determining the number of unique molecular indices per gene. Network inference was based on mutual information of gene expression from all DMSO- and small molecule-exposed samples as described in Margolin et al., BMC Bioinformatics. 2006; 7 Suppl 1:S7. Network diagram was generated using NetworkX (Hagberg et al., Exploring Network Structure, Dynamics, and Function using NetworkX. SciPy. 2008) based on network connections inferred from the small molecule screen data as described above with colors based on whole transcriptome RNA-seq gene expression of isogenic N1^+/− compared to WT ECs.
Promising small molecules were identified using either K-nearest neighbor (KNN) or hierarchical clustering algorithms. […]

In experiment [2] the test system is N1^+/− ECs. In words: Whole transcriptome RNA-seq of N1^+/− ECs treated with network-correcting molecules. As for the experimental part:
ECs were lysed and RNA was isolated using the Qiagen RNeasy Micro purification kit. RNA-seq libraries were constructed using the Clontech SMRTer Stranded RNA-seq Library Prep Kit for Illumina per kit protocol. Libraries were analyzed by Agilent Bioanalyzer, normalized to equivalent concentration, pooled, gel purified, and sequenced 75 bp paired-end on an Illumina NextSeq instrument with 10% PhiX.
Sequencing quality was assessed with FASTQC (located on the web by placing “www.” in front of “bioinformatics.babraham.ac.uk/projects/fastqc/”). Reads were aligned to the hg19 (Homo sapiens assembly February 2009) transcriptome and genome using the Spliced Transcripts Alignment to a Reference (STAR) Aligner (Dobin et al., Bioinformatics. 2012; 29:15-21) and differential expression was analyzed using Cuffdiff (Trapnell et al., Nat Biotechnol. 2012; 31:46-53). HOPACH was used for clustering with the correlation metric (van der Laan and Pollard; located on the web by placing “www.” in front of “bioconductor.org/packages/devel/bioc/manuals/hopach/man/hopach.pdf”. GO analyses were completed using GO-Elite and ToppGene (Chen et al., Nucleic Acids Research. 2009; 37:W305-W311; Zambon et al., Bioinformatics. 2012; 28:2209-2210). Network diagrams were generated using NetworkX (Hagberg et al., SciPy. 2008) based on network connections inferred from mRNA-seq gene expression of isogenic N1^+/− compared to WT ECs with colors based on whole transcriptome RNA-seq gene expression of DMSO- vs small molecule-treated WT and N1^+/− ECs.

Structures can show the parent of a compound that is named as a salt.

For `CC(C)C[C@H](NC(=O)OCC1c2ccccc2-c2ccccc21)C(=O)O` [Fmoc-leu, Fmoc-Leucine], the “KNN classification of network gene expression of treated N1^+/− ECs” value with N1^+/− iPSC-derived ECs was “classified as WT”. In addition, in the experiment on N1^+/− ECs [1], the “KNN classification of treated N1^+/− ECs in validation trials” value (shortened to “KNN classification of treated N1^+/− ECs”) was “classified as WT”.
In the case of `C=CCN1CC[C@]23c4c5ccc(O)c4O[C@H]2/C(=N/NC(=O)c2ccccc2)CC[C@@]3(O)[C@H]1C5` [Naloxone benzoylhydrazone], the “KNN classification of network gene expression of treated N1^+/− ECs” value with N1^+/− iPSC-derived ECs is “classified as WT”.
Regarding `CN1C(C(=O)Nc2ccccn2)=C(O)c2ccccc2S1(=O)=O` [piroxicam], the “hierarchical clustering of transcriptional profile of treated N1-haploinsufficient ECs with WT ECs” value (“hierarchical clustering” below) with N1^+/− iPSC-derived ECs is listed as “cluster with WT ECs”.
Consider `CCCCC[C@H](O)/C=C/[C@H]1[C@H](O)CC(=O)[C@@H]1CCCCCCC(=O)O` [Alprostadil], for which the “KNN classification of network gene expression of treated N1^+/− ECs” value in the experiment with N1^+/− iPSC-derived ECs is “classified as WT”.
With `CC(C)(C(=O)NCC(F)(F)C(F)(F)F)C(=O)N[C@@H]1C(=O)Nc2ccccc2-c2ccccc21` [RO-4929097], the “KNN classification of network gene expression of treated N1^+/− ECs” value in the experiment with N1^+/− iPSC-derived ECs is reported as “classified as WT”. Besides, the “KNN classification of treated N1^+/− ECs” value in the experiment with N1^+/− ECs [1] is given as “classified as WT”.
For the molecule `CCCCc1oc2ccccc2c1C(=O)c1cc(I)c(OCCN(CC)CC)c(I)c1` [amiodarone], the “hierarchical clustering” value in the experiment with N1^+/− iPSC-derived ECs is “cluster with WT ECs”.
With `CCn1cc(C(=O)O)c(=O)c2cc(F)c(N3CCNCC3)cc21` [Norfloxacin], the “KNN classification of network gene expression of treated N1^+/− ECs” value in the experiment with N1^+/− iPSC-derived ECs was “classified as WT”.
As for `C[N+](C)(C)CCOC(N)=O` [carbachol], the “hierarchical clustering” value with N1^+/− iPSC-derived ECs is reported as “cluster with WT ECs”.
For `CC(/C=C/c1cccc(Oc2ccc(F)cc2)c1)N(O)C(N)=O` (centres unmarked) [BWB70C], in the experiment with N1^+/− iPSC-derived ECs, the “hierarchical clustering” value is reported as “cluster with WT ECs”.
As for `NC(=O)c1cc(N2CC2)c([N+](=O)[O-])cc1[N+](=O)[O-]` [CB_1954, 5-(1-aziridinyl)-2,4-dinitrobenzamide], in the experiment on N1^+/− iPSC-derived ECs, the “KNN classification of network gene expression of treated N1^+/− ECs” value was “classified as WT”. The “KNN classification of treated N1^+/− ECs” value with N1^+/− ECs [1] is “classified as WT”.
For the molecule `C=CCc1ccccc1OCC(O)CNC(C)C` (centres unmarked) [alprenolol], the “hierarchical clustering” value in the experiment with N1^+/− iPSC-derived ECs is “cluster with WT ECs”.
In the case of `OC1(c2ccc(Cl)cc2)CCN(Cc2c[nH]c3ccccc23)CC1` [L-741,626], the “KNN classification of network gene expression of treated N1^+/− ECs” value in the experiment with N1^+/− iPSC-derived ECs was “classified as WT”.
Take `Cc1ccc(N(CC2=NCCN2)c2cccc(O)c2)cc1` [phentolamine mesylate]: the “hierarchical clustering” value in the experiment with N1^+/− iPSC-derived ECs is given as “cluster with WT ECs”.
Take `OCc1ccc(-c2nn(Cc3ccccc3)c3ccccc23)o1` [YC-1]: in the experiment with N1^+/− iPSC-derived ECs, the “KNN classification of network gene expression of treated N1^+/− ECs” value was “classified as WT”.
As for `Cc1ccnc(NS(=O)(=O)c2ccc(NC(=O)Nc3ccc(S(=O)(=O)Nc4nccc(C)n4)cc3)cc2)n1` [GSK837149A], in the experiment with N1^+/− iPSC-derived ECs, the “KNN classification of network gene expression of treated N1^+/− ECs” value is on record as “classified as WT”. The “KNN classification of treated N1^+/− ECs” value in the experiment with N1^+/− ECs [1] is reported as “classified as WT”. Besides, the “restoration of transcription of genes repressed in N1-haploinsufficient ECs” value in the experiment with N1^+/− ECs [2] (FIG. 2A) is “restored transcription of a complementary group of genes involved in angiogenesis and cardiovascular development”. Further, the “restoration of the N1-dependent network as a whole” value with N1^+/− ECs [2] (FIGS. 2E, 3A) is recorded as “restored more complementary genes to XCT790”.
Turning to `NCCCCN` [Putrescine dihydrochloride, Butane-1,4-diamine], the “KNN classification of treated N1^+/− ECs” value in the experiment with N1^+/− ECs [1] is reported as “classified as WT”.
As to `CC(C)(C)NCC(O)c1ccccc1Cl` (centres unmarked) [Tulobuterol_hydrochloride, tulobuterol hydrochloride], in the experiment on N1^+/− iPSC-derived ECs, the “KNN classification of network gene expression of treated N1^+/− ECs” value was “classified as WT”.
In the case of `O[C@@](CCN1CCCCC1)(c1ccccc1)[C@@H]1CC2C=CC1C2` (mixture of isomers) [Biperiden_hydrochloride], the “KNN classification of treated N1^+/− ECs” value in the experiment with N1^+/− ECs [1] is recorded as “classified as WT”.
Turning to `C=C1[C@@H](O)C2/C=C/C[C@H](C)CCCC(=O)/C=C/C(=O)O[C@]23CN[C@@H](Cc2ccccc2)[C@@H]3[C@@H]1C` (some centres unmarked) [Cytochalasin], in the experiment on N1^+/− iPSC-derived ECs, the “KNN classification of network gene expression of treated N1^+/− ECs” value is listed as “classified as WT”. The “KNN classification of treated N1^+/− ECs” value with N1^+/− ECs [1] is “classified as WT”. Also, in the experiment on N1^+/− ECs [2] (FIG. 2A), the “effect on dysregulation of cell motility genes” value is “worsened the dysregulation”; the “repression of genes aberrantly activated in N1-haploinsufficient ECs” value was “effective at downregulating arterial thrombosis and T cell signal genes”. For the same molecule, the “repressive effect on cadherin-11 mRNA expression” value with N1^+/− ECs [2] (FIG. 9A) was “strongest repressive effect”.
